Laboratory results published in patent US8778631B2, “Mono charging system for selectively introducing non-native amino acids into proteins using an in vitro protein synthesis system” (priority 2009, dated 2014).

Biological target: T1, PheRS (Escherichia coli, UniProt P08312)
T1 construct: endogenous in cells; host or cells: cell-free extract (lysate) of E. coli strain KGK10
Assay: Inhibition of the rate of cell-free synthesis of turboGFP by Phe-SA
Assay type: biochemical, E. coli
Details: cell-free synthesis of turboGFPY50TAG with pAF-tRNACUA^Phe
Description: A modified “run-off procedure” was used to prepare the cell-free extract. Fermentation volume to generate sufficient cell-free extract was typically 2.5× the desired cell-free reaction volume. To inactivate the reducing activity of the cell extract, iodoacetamide (IAM) at various concentrations was added as previously described (Yang, Kanter et al. (2004) Biotechnol Prog, 20, 1689-96). Gene expression was under the control of the T7 promoter. In order to facilitate translation initiation, genes were synthesized (DNA 2.0, Menlo Park, Calif.) with synonymous codons at the 5′ end of the gene with ATG start codon (N-terminal methionine residue) optimized for mRNA instability as measured by mRNA ΔGfold in the −6 to +37 positions (Kudla, Murray et al. (2009) Science, 324, 255-258) and rare codons were replaced.
Cell-free reactions were run at 30° C. containing 8 mM magnesium glutamate, 10 mM ammonium glutamate, 130 mM potassium glutamate, 35 mM sodium pyruvate, 1.2 mM AMP, 0.86 mM each of GMP, UMP, & CMP, 2 mM amino acids (1 mM for tyrosine), 4 mM sodium oxalate, 1 mM putrescine, 1.5 mM spermidine, 15 mM potassium phosphate, 100 nM T7 RNA polymerase, 2-50 nM DNA template(s), 1-10 μM E. coli DsbC, and 24-30% (v/v) IAM-treated cell-free extract.

T1 sequence (P07395 whole entry): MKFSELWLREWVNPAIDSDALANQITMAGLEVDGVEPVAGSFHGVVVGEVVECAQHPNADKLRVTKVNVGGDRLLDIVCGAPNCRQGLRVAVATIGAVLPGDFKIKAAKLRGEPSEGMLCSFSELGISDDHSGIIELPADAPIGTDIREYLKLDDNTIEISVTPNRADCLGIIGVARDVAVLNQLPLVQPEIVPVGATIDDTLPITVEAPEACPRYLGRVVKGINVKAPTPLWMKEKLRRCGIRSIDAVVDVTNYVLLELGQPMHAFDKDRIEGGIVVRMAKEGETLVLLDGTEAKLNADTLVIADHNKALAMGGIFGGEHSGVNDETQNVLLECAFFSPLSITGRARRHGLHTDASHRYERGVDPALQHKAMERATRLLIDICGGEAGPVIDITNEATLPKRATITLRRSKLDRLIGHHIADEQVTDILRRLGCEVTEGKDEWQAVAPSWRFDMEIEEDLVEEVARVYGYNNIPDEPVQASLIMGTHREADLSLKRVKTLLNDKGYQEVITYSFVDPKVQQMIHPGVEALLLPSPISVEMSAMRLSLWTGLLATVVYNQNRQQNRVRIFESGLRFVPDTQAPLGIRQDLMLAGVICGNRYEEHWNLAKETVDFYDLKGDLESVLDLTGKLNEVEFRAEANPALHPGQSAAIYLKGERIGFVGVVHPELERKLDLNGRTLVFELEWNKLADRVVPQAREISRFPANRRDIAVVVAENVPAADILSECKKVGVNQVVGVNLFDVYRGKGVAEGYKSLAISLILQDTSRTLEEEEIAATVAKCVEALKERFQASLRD
T1 sequence (P08312 whole entry): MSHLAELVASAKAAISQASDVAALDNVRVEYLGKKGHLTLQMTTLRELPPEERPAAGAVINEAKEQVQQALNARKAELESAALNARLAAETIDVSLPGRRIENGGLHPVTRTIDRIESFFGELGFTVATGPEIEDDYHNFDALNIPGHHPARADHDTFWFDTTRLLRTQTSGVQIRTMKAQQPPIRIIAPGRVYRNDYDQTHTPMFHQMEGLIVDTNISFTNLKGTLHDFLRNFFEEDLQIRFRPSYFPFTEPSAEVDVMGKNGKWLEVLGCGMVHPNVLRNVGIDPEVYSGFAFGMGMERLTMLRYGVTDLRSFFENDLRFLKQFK

Q: Which “time after which the inhibitor begins to lose its effectiveness” value does the source give for `Nc1ncnc2c1ncn2[C@@H]1O[C@H](COS(=O)(=O)NC(=O)[C@@H](N)Cc2ccccc2)[C@@H](O)[C@H]1O` [Phe-SA, 5′-O—[N-(Phenylalanyl)sulfamoyl]adenosine] here?
A: 7 to 8 h
